# Reference: patent publication US9796711B2, “Substituted pyrazolo[3,4-b]pyridin-6-carboxylic acids and method of use” (AbbVie S.àr.l., priority 2015, dated 2017)
# Key:
# ΔF508-CFTR [1] = molecular target: T1, ΔF508-CFTR (Homo sapiens, UniProt P13569, DEL508-508); experiment: CFTR cell surface levels using HRP-tagged ΔF508-CFTR expressing CFBE cells, intrinsic corrector capacity; type: cell-based
# T1 construct: host or cells: CFBE41o-, doxycycline-inducible
# Method in brief: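 Here the cells express ΔF508-CFTR with horseradish peroxidase inserted in extracellular loop 4, so only rescued channel at the surface gives luminescent signal. Compounds act on their own, 20 h at the reduced temperature of 33 °C; values are percent activity relative to DMSO and a 3 μM corrector.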
# ΔF508-CFTR [2] = molecular target: T1, ΔF508-CFTR; experiment: CFTR cell surface levels using HRP-tagged ΔF508-CFTR expressing CFBE cells, in the presence of a co-corrector; type: cell-based
# Method in brief: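 Cells were seeded with 0.5 μg/mL doxycycline and held 68 h at 37 °C. Test compounds plus 3 μM co-corrector (final 0.1% DMSO) were then added for 20 h at 33 °C. Washed cells received HRP substrate, and luminescence was normalized between DMSO and 3 μM co-corrector controls.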
# [3] = HRP-tagged ΔF508-CFTR expressing CFBE cells, intrinsic corrector capacity (no co-corrector), 33° C., 20 hours
# [4] = HRP-tagged ΔF508-CFTR expressing CFBE cells, intrinsic corrector capacity (no co-corrector), 33° C., 20 hours, read-out: EC50
# [5] = HRP-tagged ΔF508-CFTR expressing CFBE cells, in the presence of 3 μM co-corrector
# [6] = HRP-tagged ΔF508-CFTR expressing CFBE cells, in the presence of 3 μM co-corrector, read-out: EC50
# T1 sequence (P13569 with tags, fused parts or gaps DEL508-508): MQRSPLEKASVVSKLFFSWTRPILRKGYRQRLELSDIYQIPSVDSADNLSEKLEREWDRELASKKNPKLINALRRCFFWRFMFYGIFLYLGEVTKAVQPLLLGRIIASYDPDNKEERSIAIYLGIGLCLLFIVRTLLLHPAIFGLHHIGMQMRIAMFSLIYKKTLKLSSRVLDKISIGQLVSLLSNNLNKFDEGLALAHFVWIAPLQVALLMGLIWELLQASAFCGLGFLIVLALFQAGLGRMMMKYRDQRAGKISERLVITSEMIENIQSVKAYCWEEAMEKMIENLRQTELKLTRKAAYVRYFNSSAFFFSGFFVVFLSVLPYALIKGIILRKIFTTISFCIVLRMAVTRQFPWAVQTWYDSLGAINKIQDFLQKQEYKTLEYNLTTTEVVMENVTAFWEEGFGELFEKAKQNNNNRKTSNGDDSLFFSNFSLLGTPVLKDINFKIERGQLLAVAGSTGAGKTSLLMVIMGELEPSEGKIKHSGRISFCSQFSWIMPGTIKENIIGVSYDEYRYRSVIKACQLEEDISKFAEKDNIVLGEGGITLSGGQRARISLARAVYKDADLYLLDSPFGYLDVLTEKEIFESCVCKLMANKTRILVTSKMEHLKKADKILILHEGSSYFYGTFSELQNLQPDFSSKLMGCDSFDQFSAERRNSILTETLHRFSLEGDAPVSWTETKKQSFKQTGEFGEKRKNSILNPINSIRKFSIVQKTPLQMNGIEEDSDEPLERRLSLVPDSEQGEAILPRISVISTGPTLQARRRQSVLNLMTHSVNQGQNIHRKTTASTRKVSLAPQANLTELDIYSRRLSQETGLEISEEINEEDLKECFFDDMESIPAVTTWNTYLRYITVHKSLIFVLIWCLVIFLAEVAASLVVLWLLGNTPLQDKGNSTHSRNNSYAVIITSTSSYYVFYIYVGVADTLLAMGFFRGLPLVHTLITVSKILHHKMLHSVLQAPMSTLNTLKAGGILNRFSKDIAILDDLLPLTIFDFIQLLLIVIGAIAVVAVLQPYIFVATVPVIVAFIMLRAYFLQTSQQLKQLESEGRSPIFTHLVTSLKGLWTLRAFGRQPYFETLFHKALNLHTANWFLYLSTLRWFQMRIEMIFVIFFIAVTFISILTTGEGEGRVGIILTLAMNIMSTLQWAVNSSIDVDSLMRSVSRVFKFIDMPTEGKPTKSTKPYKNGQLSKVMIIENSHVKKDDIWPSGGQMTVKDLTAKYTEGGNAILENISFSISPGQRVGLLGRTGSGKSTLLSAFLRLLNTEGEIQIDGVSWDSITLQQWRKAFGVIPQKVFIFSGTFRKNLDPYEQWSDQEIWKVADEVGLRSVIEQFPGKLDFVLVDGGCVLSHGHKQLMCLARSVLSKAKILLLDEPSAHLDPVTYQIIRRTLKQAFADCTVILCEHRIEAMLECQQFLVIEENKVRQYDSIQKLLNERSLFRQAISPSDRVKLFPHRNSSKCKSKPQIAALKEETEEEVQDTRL
SMILES,% Activation (ΔF508-CFTR [1]; [3]),EC50 (ΔF508-CFTR [1]; [4]),% Activation (ΔF508-CFTR [2]; [5]),EC50 (ΔF508-CFTR [2]; [6]),EC50 (ΔF508-CFTR [1]),EC50 (ΔF508-CFTR [2])
"CC(C)c1nn(-c2ccc(F)cc2)c2nc(C(=O)O)cc(N3CCC(C)(N4CCCCC4)CC3)c12 [compound 784, 1-(4-fluorophenyl)-4-(4′-methyl [1,4′-bipiperidin]-1′-yl)-3-(propan-2-yl)-1H-pyrazolo[3,4-b]pyridine-6-carboxylic acid]",38.94%,1220 nM,225.6%,1670 nM,–,–
"CC(C)c1nn(-c2ccc(F)cc2)c2nc(C(=O)O)cc(N3CCC(CCN4CCN(C)CC4)CC3)c12 [compound 785, 1-(4-fluorophenyl)-4-{4-[2-(4-methylpiperazin-1-yl)ethyl]piperidin-1-yl}-3-(propan-2-yl)-1H-pyrazolo[3,4-b]pyridine-6-carboxylic acid]",264.9%,622 nM,482.8%,558 nM,–,–
"CC(C)c1nn(-c2ccc(F)cc2)c2nc(C(=O)O)cc(N3CC[C@@H](N4CCCCC4)C3)c12 [compound 786, 1-(4-fluorophenyl)-4-[(3R)-3-(piperidin-1-yl)pyrrolidin-1-yl]-3-(propan-2-yl)-1H-pyrazolo[3,4-b]pyridine-6-carboxylic acid]",67.03%,1160 nM,221.6%,907 nM,–,–
"CCN(CC)C1CCN(c2cc(C(=O)O)nc3c2c(C(C)C)nn3-c2ccc(F)cc2)CC1 [compound 787, 4-[4-(diethylamino)piperidin-1-yl]-1-(4-fluorophenyl)-3-(propan-2-yl)-1H-pyrazolo[3,4-b]pyridine-6-carboxylic acid]",121.5%,771 nM,309.9%,1300 nM,–,–
"CC(C)c1nn(-c2ccc(F)cc2)c2nc(C(=O)O)cc(N3CCN(C(C)(C)C)CC3)c12 [compound 788, 4-(4-tert-butylpiperazin-1-yl)-1-(4-fluorophenyl)-3-(propan-2-yl)-1H-pyrazolo[3,4-b]pyridine-6-carboxylic acid]",115.7%,1670 nM,329.4%,1670 nM,–,–
"CC(C)c1nn(-c2ccc(F)cc2)c2nc(C(=O)O)cc(N3CCN(CC4CCCN(C)C4)CC3)c12 (stereo not shown) [compound 791, 1-(4-fluorophenyl)-4-{4-[(1-methylpiperidin-3-yl)methyl]piperazin-1-yl}-3-(propan-2-yl)-1H-pyrazolo[3,4-b]pyridine-6-carboxylic acid]",79.95%,1670 nM,307.5%,1670 nM,–,–
"CC(C)c1nn(-c2ccc(F)cc2)c2nc(C(=O)O)cc(N3CCN(CC4CCCO4)CC3)c12 (stereo not shown) [compound 792, 1-(4-fluorophenyl)-4-{4-[(oxolan-2-yl)methyl]piperazin-1-yl}-3-(propan-2-yl)-1H-pyrazolo[3,4-b]pyridine-6-carboxylic acid]",170.1%,1430 nM,321%,710 nM,–,–
"COCC(C)N1CCN(c2cc(C(=O)O)nc3c2c(C(C)C)nn3-c2ccc(F)cc2)CC1 (stereo not shown) [compound 793, 1-(4-fluorophenyl)-4-[4-(1-methoxypropan-2-yl)piperazin-1-yl]-3-(propan-2-yl)-1H-pyrazolo[3,4-b]pyridine-6-carboxylic acid]",157.7%,1670 nM,363.5%,1670 nM,–,–
"CC(C)c1nn(-c2ccc(F)cc2)c2nc(C(=O)O)cc(N3CC(N4CCCC4)C3)c12 [compound 794, 1-(4-fluorophenyl)-3-(propan-2-yl)-4-[3-(pyrrolidin-1-yl)azetidin-1-yl]-1H-pyrazolo[3,4-b]pyridine-6-carboxylic acid]",58.82%,1670 nM,168.7%,788 nM,–,–
"CC(C)c1nn(-c2ccc(F)cc2)c2nc(C(=O)O)cc(N3CCCN(C(C)C)CC3)c12 [compound 795, 1-(4-fluorophenyl)-3-(propan-2-yl)-4-[4-(propan-2-yl)-1,4-diazepan-1-yl]-1H-pyrazolo[3,4-b]pyridine-6-carboxylic acid]",47.22%,1670 nM,175.3%,1670 nM,–,–
"CC(C)CN1C[C@@H]2CN(c3cc(C(=O)O)nc4c3c(C(C)C)nn4-c3ccc(F)cc3)C[C@@H]2C1 [compound 796, 1-(4-fluorophenyl)-4-[(3aR,6aS)-5-(2-methylpropyl)hexahydropyrrolo[3,4-c]pyrrol-2(1H)-yl]-3-(propan-2-yl)-1H-pyrazolo[3,4-b]pyridine-6-carboxylic acid]",169.7%,1670 nM,358%,1670 nM,–,–
"CCN1CCCN(c2cc(C(=O)O)nc3c2c(C(C)C)nn3-c2ccc(F)cc2)CC1 [compound 797, 4-(4-ethyl-1,4-diazepan-1-yl)-1-(4-fluorophenyl)-3-(propan-2-yl)-1H-pyrazolo[3,4-b]pyridine-6-carboxylic acid]",31.52%,5000 nM,178.6%,1670 nM,–,–
"CC(C)c1nn(-c2ccc(F)cc2)c2nc(C(=O)O)cc(N3CCC(O)(CN(C)C(C)C)CC3)c12 [compound 798, 1-(4-fluorophenyl)-4-(4-hydroxy-4-{[methyl(propan-2-yl)amino]methyl}piperidin-1-yl)-3-(propan-2-yl)-1H-pyrazolo[3,4-b]pyridine-6-carboxylic acid]",58.3%,1670 nM,186.5%,864 nM,–,–
"CC(C)c1nn(-c2ccc(F)cc2)c2nc(C(=O)O)cc(N3CCC(N(C)C(C)C)CC3)c12 [compound 799, 1-(4-fluorophenyl)-4-{4-[methyl(propan-2-yl)amino]piperidin-1-yl}-3-(propan-2-yl)-1H-pyrazolo[3,4-b]pyridine-6-carboxylic acid]",114%,1670 nM,306.6%,1670 nM,–,–
"CCN(CC)CCN1CCN(c2cc(C(=O)O)nc3c2c(C(C)C)nn3-c2ccc(F)cc2)CC1 [compound 800, 4-[4-[2-(diethylamino)ethyl]piperazin-1-yl}-1-(4-fluorophenyl)-3-(propan-2-yl)-1H-pyrazolo[3,4-b]pyridine-6-carboxylic acid]",45.22%,1670 nM,214.8%,1490 nM,–,–
"CC(C)c1nn(-c2ccc(F)cc2)c2nc(C(=O)O)cc(N3CCN(C4CCN(C)CC4)CC3)c12 [compound 801, 1-(4-fluorophenyl)-4-[4-(1-methylpiperidin-4-yl)piperazin-1-yl]-3-(propan-2-yl)-1H-pyrazolo[3,4-b]pyridine-6-carboxylic acid]",67.99%,1670 nM,253.1%,1670 nM,–,–
"COC[C@@H]1CCN(CC2CCN(c3cc(C(=O)O)nc4c3c(C3CCC3)nn4-c3ccccc3)CC2)C1 [compound 802, 3-cyclobutyl-4-(4-{[(3R)-3-(methoxymethyl)pyrrolidin-1-yl]methyl}piperidin-1-yl)-1-phenyl-1H-pyrazolo[3,4-b]pyridine-6-carboxylic acid]",218%,462 nM,439.7%,771 nM,–,–
"CC(C1CCN(c2cc(C(=O)O)nc3c2c(C2CCC2)nn3-c2ccc(F)cc2)CC1)N1CCOCC1 (stereo not shown) [compound 805, 3-cyclobutyl-1-(4-fluorophenyl)-4-{4-[1-(morpholin-4-yl)ethyl]piperidin-1-yl}-1H-pyrazolo[3,4-b]pyridine-6-carboxylic acid]",364%,72.7 nM,671%,47.4 nM,–,–
"CC(C)c1nn(-c2ccc(F)cc2)c2nc(C(=O)O)cc(N3CCC(CN4CCCC4)CC3)c12 [compound 811, 1-(4-fluorophenyl)-3-(propan-2-yl)-4-{4-[(pyrrolidin-1-yl)methyl]piperidin-1-yl}-1H-pyrazolo[3,4-b]pyridine-6-carboxylic acid]",120.4%,–,408.4%,–,890 nM,1080 nM
"COCC1CCN(c2cc(C(=O)O)nc3c2c(C2CCC2)nn3-c2ccnc(C3CCOCC3)c2)CC1 [compound 817, 3-cyclobutyl-4-[4-(methoxymethyl)piperidin-1-yl]-1-[2-(oxan-4-yl)pyridin-4-yl]-1H-pyrazolo[3,4-b]pyridine-6-carboxylic acid]",168%,152 nM,384.9%,46.4 nM,–,–
"O=C(O)c1cc(N2CCC(N3CCOCC3)CC2)c2c(C3CCC3)nn(-c3ccnc(C4CCOCC4)c3)c2n1 [compound 819, 3-cyclobutyl-4-[4-(morpholin-4-yl)piperidin-1-yl]-1-[2-(oxan-4-yl)pyridin-4-yl]-1H-pyrazolo[3,4-b]pyridine-6-carboxylic acid]",174.7%,3330 nM,313.1%,3330 nM,–,–
"Cc1cccc(-n2nc(C3CCC3)c3c(N4CCC(N5CCOCC5)CC4)cc(C(=O)O)nc32)c1 [compound 820, 3-cyclobutyl-1-(3-methylphenyl)-4-[4-(morpholin-4-yl)piperidin-1-yl]-1H-pyrazolo[3,4-b]pyridine-6-carboxylic acid]",351.3%,285 nM,499.75%,123 nM,–,–
